In patent publication US20250296953A1, “3,4-THIAZOLO-STEROIDS AND METHODS OF MAKING AND USING THE SAME” (Arkansas State University - Jonesboro, priority 2018, published 2025):

Tested on: 60 different human tumor cell lines
Assay: NCI Development Therapeutics Program 60 cell line screen, one dose
Assay type: cell-based

With `C[C@]12CCc3nc(N)sc3C1=CC[C@@H]1[C@@H]2CC[C@]2(C)C(=NNC(N)=O)CC[C@@H]12` [IVb.1] the “Growth Percent” value (Breast Cancer, BT-549) was 107.48%, the “Growth Percent” value (Breast Cancer, HS 578T) was 36.38% and the “Growth Percent” value (Breast Cancer, MCF7) was −55.62%. For the same compound, the “Growth Percent” value (Breast Cancer, MDA-MB-231/ATCC) was 35.18%, the “Growth Percent” value (Breast Cancer, MDA-MB-468) was −46.23% and the “Growth Percent” value (Breast Cancer, T-47D) was −21.02%. The “Growth Percent” value (CNS Cancer, SF-268) was −6.41%, the “Growth Percent” value (CNS Cancer, SNB-19) was −9.98% and the “Growth Percent” value (CNS Cancer, SNB-75) was 99.02%. For the same compound, the “Growth Percent” value (CNS Cancer, U251) was −69.94%, the “Growth Percent” value (Colon Cancer, COLO 205) was 34.98% and the “Growth Percent” value (Colon Cancer, HCC-2998) was 63.85%. The “Growth Percent” value (Colon Cancer, HCT-116) was 6.35%, the “Growth Percent” value (Colon Cancer, HT29) was 13.20% and the “Growth Percent” value (Colon Cancer, KM12) was 20.47%. For the same compound, the “Growth Percent” value (Colon Cancer, SW-620) was −59.20%, the “Growth Percent” value (Leukemia, CCRF-CEM) was −5.86% and the “Growth Percent” value (Leukemia, HL-60(TB)) was 42.82%. The “Growth Percent” value (Leukemia, K-562) was −38.55%, the “Growth Percent” value (Leukemia, MOLT-4) was 13.35% and the “Growth Percent” value (Leukemia, RPMI-8226) was −6.28%. For the same compound, the “Growth Percent” value (Leukemia, SR) was −21.79%, the “Growth Percent” value (Melanoma, LOX IMVI) was −67.61% and the “Growth Percent” value (Melanoma, M14) was −51.14%. The “Growth Percent” value (Melanoma, MALME-3M) was 3.07%, the “Growth Percent” value (Melanoma, MDA-MB-435) was −58.82% and the “Growth Percent” value (Melanoma, SK-MEL-5) was 20.55%. The “Growth Percent” value (Melanoma, SK-MEL-28) was 13.00%, the “Growth Percent” value (Melanoma, UACC-62) was 38.92% and the “Growth Percent” value (Melanoma, UACC-257) was 105.26%. The “Growth Percent” value (Non-small Cell Lung Cancer, A549/ATCC) was 0.92%, the “Growth Percent” value (Non-small Cell Lung Cancer, EKVX) was −4.54% and the “Growth Percent” value (Non-small Cell Lung Cancer, HOP-62) was 75.49%. For the same compound, the “Growth Percent” value (Non-small Cell Lung Cancer, HOP-92) was 46.57%, the “Growth Percent” value (Non-small Cell Lung Cancer, NCI-H23) was −44.30% and the “Growth Percent” value (Non-small Cell Lung Cancer, NCI-H226) was 107.87%. For the same compound, the “Growth Percent” value (Non-small Cell Lung Cancer, NCI-H322M) was 52.42%, the “Growth Percent” value (Non-small Cell Lung Cancer, NCI-H460) was −38.65% and the “Growth Percent” value (Ovarian Cancer, IGROV1) was 2.90%. For the same compound, the “Growth Percent” value (Ovarian Cancer, NCI/ADR-RES) was −5.32%, the “Growth Percent” value (Ovarian Cancer, OVCAR-3) was −32.35% and the “Growth Percent” value (Ovarian Cancer, OVCAR-4) was −19.07%. For the same compound, the “Growth Percent” value (Ovarian Cancer, OVCAR-5) was 72.93%, the “Growth Percent” value (Ovarian Cancer, OVCAR-8) was −2.26% and the “Growth Percent” value (Ovarian Cancer, SK-OV-3) was 100.67%. The “Growth Percent” value (Prostate Cancer, PC-3) was 57.29%, the “Growth Percent” value (Renal Cancer, 786-0) was −9.65% and the “Growth Percent” value (Renal Cancer, A498) was 91.62%. For the same compound, the “Growth Percent” value (Renal Cancer, ACHN) was 32.38%, the “Growth Percent” value (Renal Cancer, CAKI-1) was 62.97% and the “Growth Percent” value (Renal Cancer, RXF 393) was 7.08%. The “Growth Percent” value (Renal Cancer, SN12C) was 18.09%, the “Growth Percent” value (Renal Cancer, TK-10) was 49.21% and the “Growth Percent” value (Renal Cancer, UO-31) was 85.84%.
